These results are taken from BindingDB's records for doi:10.1111/j.1747-0285.2007.00617.x (Burnham Institute For Medical Research, 2008).

Test [1] addresses 72 kDa type IV collagenase (Homo sapiens, UniProt P08253). Kind of test: MMP Inhibition Assay. The protocol: (§1) This assay was performed as outlined in the Anaspec MMP assay kit. The fluorescence peptide cleavage assay was performed in a 96-well plate in which each reaction mixture contained 5-FAM / QXL520 and activated MMP-2 or MMP-9 in assay buffer, and the screening compounds.

In test [2] the target is Matrix metalloproteinase-9 (Homo sapiens, UniProt P14780). Kind of test: MMP Inhibition Assay. As to the method: as §1
Chain of Matrix metalloproteinase-9 (P14780 whole entry): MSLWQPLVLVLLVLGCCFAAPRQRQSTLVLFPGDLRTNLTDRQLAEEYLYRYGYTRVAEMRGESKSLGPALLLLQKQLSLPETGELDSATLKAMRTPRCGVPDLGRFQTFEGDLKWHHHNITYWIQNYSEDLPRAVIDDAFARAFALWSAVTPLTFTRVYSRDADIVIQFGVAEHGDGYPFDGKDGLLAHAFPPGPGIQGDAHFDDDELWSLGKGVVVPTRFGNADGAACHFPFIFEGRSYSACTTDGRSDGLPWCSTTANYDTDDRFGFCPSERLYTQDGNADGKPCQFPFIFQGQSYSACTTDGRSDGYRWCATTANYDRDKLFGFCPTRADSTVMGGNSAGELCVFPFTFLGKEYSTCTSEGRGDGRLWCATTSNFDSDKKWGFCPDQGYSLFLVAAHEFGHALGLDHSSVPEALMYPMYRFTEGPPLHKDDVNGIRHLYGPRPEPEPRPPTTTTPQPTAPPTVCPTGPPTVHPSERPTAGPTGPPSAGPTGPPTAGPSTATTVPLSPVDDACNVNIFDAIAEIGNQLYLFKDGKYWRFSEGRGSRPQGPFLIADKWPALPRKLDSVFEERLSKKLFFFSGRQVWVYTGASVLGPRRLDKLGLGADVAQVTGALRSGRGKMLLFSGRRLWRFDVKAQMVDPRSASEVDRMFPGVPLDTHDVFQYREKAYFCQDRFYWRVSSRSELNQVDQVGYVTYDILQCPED

Chain of 72 kDa type IV collagenase (P08253 whole entry): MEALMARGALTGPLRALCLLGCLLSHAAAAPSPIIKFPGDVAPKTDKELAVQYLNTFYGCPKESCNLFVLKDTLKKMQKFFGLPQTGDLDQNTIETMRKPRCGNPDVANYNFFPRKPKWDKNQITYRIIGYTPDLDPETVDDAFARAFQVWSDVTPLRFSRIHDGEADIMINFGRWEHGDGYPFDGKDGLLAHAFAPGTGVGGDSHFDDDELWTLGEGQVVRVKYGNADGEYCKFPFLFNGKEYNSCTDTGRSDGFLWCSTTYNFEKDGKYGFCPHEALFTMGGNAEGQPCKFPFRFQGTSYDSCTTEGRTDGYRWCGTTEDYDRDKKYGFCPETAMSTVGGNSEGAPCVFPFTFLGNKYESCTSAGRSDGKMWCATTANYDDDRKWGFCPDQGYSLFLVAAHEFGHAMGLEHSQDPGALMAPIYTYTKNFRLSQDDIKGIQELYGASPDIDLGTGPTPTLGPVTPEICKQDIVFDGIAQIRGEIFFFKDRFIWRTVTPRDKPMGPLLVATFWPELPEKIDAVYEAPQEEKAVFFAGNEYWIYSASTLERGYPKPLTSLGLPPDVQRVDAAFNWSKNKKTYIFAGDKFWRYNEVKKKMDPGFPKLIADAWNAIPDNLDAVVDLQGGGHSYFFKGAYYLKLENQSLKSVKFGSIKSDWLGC

Take `O=C(O)CN1C(=O)/C(=C/c2cc(-c3ccccc3)on2)SC1=S` [2-[(5Z)-4-oxo-5-[(5-phenyl-1,2-oxazol-3-yl)methylidene]-2-sulfanylidene-1,3-thiazolidin-3-yl]acetic acid]: the 50% inhibitory concentration (IC50) in test [1] was over 100 µM; in test [2], 50 µM.
Regarding `Cc1nc(/C=C2\SC(=S)N(CC(=O)O)C2=O)c(C)o1` [2-[(5Z)-5-[(2,5-dimethyl-1,3-oxazol-4-yl)methylidene]-4-oxo-2-sulfanylidene-1,3-thiazolidin-3-yl]acetic acid], the IC50 in test [1] and in test [2] was over 100 µM each time.
Take `Cc1nc(-c2ccccc2)c(/C=C2\SC(=S)N(CC(=O)O)C2=O)s1` [2-[(5Z)-5-[(2-methyl-4-phenyl-1,3-thiazol-5-yl)methylidene]-4-oxo-2-sulfanylidene-1,3-thiazolidin-3-yl]acetic acid]: the IC50 in test [1] and in test [2] was over 100 µM throughout.
With `CC(C)(C)OC(=O)N1CCC(c2nc(/C=C3\SC(=S)N(CC(=O)O)C3=O)cs2)CC1` [2-[(5Z)-5-[(2-{1-[(tert-butoxy)carbonyl]piperidin-4-yl}-1,3-thiazol-4-yl)methylidene]-4-oxo-2-sulfanylidene-1,3-thiazolidin-3-yl]acetic acid], the IC50 in test [1] and in test [2] was over 100 µM throughout.
Regarding `O=C(O)CN1C(=O)/C(=C/c2c[nH]c3ccc(Br)cc23)SC1=S` [2-[(5Z)-5-[(5-bromo-1H-indol-3-yl)methylidene]-4-oxo-2-sulfanylidene-1,3-thiazolidin-3-yl]acetic acid], the IC50 in test [2] was over 100 µM.
For the molecule `O=C(O)CN1C(=O)/C(=C/c2cc(-c3ccc(Br)cc3)on2)SC1=S` [2-[(5Z)-5-{[5-(4-bromophenyl)-1,2-oxazol-3-yl]methylidene}-4-oxo-2-sulfanylidene-1,3-thiazolidin-3-yl]acetic acid], the IC50 in test [1] was over 100 µM; in test [2], 27.4 µM.
For the molecule `O=C(O)CN1C(=O)/C(=C/c2cc(-c3ccc(Cl)cc3)on2)SC1=S` [2-[(5Z)-5-{[5-(4-chlorophenyl)-1,2-oxazol-3-yl]methylidene}-4-oxo-2-sulfanylidene-1,3-thiazolidin-3-yl]acetic acid], the IC50 in test [1] was 19.2 µM; in test [2] it was over 100 µM.
For `O=C(O)CN1C(=O)/C(=C/c2cc(-c3ccc(F)cc3)on2)SC1=S` [2-[(5Z)-5-{[5-(4-fluorophenyl)-1,2-oxazol-3-yl]methylidene}-4-oxo-2-sulfanylidene-1,3-thiazolidin-3-yl]acetic acid] the same measures were 10 µM and over 100 µM.
Turning to `COc1ccc(-c2cc(/C=C3\SC(=S)N(CC(=O)O)C3=O)no2)cc1` [2-[(5Z)-5-{[5-(4-methoxyphenyl)-1,2-oxazol-3-yl]methylidene}-4-oxo-2-sulfanylidene-1,3-thiazolidin-3-yl]acetic acid], the IC50 is 6.62 µM in test [1] and over 100 µM in test [2].
Turning to `Cc1ccc(-c2cc(/C=C3\SC(=S)N(CC(=O)O)C3=O)no2)cc1` [2-[(5Z)-5-{[5-(4-methylphenyl)-1,2-oxazol-3-yl]methylidene}-4-oxo-2-sulfanylidene-1,3-thiazolidin-3-yl]acetic acid], the IC50 in test [1] was under 10 µM; in test [2], over 100 µM.
In the case of `O=C(O)CN1C(=O)/C(=C/c2cc(-c3ccco3)on2)SC1=S` [2-[(5Z)-5-{[5-(furan-2-yl)-1,2-oxazol-3-yl]methylidene}-4-oxo-2-sulfanylidene-1,3-thiazolidin-3-yl]acetic acid], in test [2], the IC50 is over 100 µM.
